Data: US20240408096A1, “DOSING REGIMENS FOR ORAL ALK2 KINASE INHIBITORS” (BioCryst Pharmaceuticals, Inc., priority 2020, published 2024)

Legend:
[1] = plasma protein binding, dog; assay type: in vitro ADME; settings: in vitro
[2] = rat micronucleus-comet genotoxicity assays; settings: in vivo
CYP3A4 = CYP3A4 (Homo sapiens, UniProt P08684); assay: CYP inhibition in vitro; assay type: in vitro ADME
[3] = metabolism by liver S9 fraction; assay type: in vitro ADME; settings: animal and human liver S9 fraction
ALK2(R206H) = molecular target: T1, ALK2(R206H) (Homo sapiens, UniProt Q04771, R206H); assay: ALK2(R206H) functional assays; assay type: biochemical; settings: several functional assays; read-out: ALK2(R206H) activity potency (IC50)
T1 sequence (Q04771 21-509 R206H): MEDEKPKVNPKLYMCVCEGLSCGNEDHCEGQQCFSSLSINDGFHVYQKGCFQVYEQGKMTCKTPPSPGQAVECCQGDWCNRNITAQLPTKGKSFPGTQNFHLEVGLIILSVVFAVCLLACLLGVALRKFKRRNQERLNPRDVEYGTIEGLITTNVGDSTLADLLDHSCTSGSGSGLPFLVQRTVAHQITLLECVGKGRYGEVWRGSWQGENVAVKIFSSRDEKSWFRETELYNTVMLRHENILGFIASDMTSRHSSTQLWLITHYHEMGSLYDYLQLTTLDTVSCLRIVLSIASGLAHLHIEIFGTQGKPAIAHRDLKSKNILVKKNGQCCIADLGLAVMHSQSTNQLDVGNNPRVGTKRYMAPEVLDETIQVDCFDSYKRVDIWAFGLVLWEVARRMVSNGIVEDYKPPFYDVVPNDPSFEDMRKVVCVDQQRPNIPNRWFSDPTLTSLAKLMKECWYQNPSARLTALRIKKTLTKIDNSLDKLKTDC

[4] = Phase 1 Part 2 (MAD) urinary PK; assay type: in vivo, human; settings: for CLR,0-6 / CLR,6-12 / CLR,32-24 / CLR,144-150 / CLR,150-156 / CLR,156-168 / Cum % excreted0-168 / CumAe0-168: Part 2 MAD, geometric mean (CV%); for CumAe0-168: urine 0 to 168 hours
Protocol: Four sequential MAD cohorts were dosed.
Urine samples were collected according to the schedule in Tables 4 and 5 for Parts 1 and 2, respectively. The pre-dose sample on Day 1 was collected any time in the 2 hours prior to dosing. A 30-minute window was allowed around collection intervals.

CYP2C8 = molecular target: T2, CYP2C8 (Homo sapiens, UniProt P10632); assay: CYP inhibition in vitro; assay type: in vitro ADME
T2 sequence (P10632 1-490): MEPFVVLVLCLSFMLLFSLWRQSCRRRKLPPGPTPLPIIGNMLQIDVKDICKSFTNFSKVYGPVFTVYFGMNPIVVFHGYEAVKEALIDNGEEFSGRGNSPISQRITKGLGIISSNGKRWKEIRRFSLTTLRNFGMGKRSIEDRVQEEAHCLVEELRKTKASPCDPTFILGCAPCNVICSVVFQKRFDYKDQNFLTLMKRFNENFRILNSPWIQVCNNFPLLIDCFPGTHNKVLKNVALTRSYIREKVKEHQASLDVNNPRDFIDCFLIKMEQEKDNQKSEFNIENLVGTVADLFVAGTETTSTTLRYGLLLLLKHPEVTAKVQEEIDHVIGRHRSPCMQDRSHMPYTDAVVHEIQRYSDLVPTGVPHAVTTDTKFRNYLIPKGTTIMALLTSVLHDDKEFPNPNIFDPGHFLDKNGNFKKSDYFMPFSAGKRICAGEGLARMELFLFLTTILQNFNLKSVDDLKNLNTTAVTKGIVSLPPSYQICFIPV

cytochrome P450 (CYP)1A2 = molecular target: T3, cytochrome P450 (CYP)1A2 (Homo sapiens, UniProt P05177); assay: CYP inhibition in vitro; assay type: in vitro ADME
T3 sequence (P05177 1-516): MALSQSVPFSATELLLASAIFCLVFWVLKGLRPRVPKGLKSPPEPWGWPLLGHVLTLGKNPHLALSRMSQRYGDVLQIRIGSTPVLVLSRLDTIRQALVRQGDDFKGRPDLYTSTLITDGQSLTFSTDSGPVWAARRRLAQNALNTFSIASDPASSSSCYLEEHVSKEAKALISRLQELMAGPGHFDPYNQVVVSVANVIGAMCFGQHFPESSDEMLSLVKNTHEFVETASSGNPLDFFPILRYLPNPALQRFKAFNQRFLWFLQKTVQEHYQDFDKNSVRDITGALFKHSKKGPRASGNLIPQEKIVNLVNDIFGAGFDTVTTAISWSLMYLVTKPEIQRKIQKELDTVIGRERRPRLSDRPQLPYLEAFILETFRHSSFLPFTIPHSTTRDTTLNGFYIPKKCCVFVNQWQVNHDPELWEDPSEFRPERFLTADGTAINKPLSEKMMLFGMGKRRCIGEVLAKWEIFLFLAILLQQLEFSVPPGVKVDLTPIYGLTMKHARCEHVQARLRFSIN

[5] = plasma protein binding, rat; assay type: in vitro ADME; settings: in vitro
CYP2C9 = CYP2C9 (Homo sapiens, UniProt P11712); assay: CYP inhibition in vitro; assay type: in vitro ADME
Chain of CYP2C9 (P11712 whole entry): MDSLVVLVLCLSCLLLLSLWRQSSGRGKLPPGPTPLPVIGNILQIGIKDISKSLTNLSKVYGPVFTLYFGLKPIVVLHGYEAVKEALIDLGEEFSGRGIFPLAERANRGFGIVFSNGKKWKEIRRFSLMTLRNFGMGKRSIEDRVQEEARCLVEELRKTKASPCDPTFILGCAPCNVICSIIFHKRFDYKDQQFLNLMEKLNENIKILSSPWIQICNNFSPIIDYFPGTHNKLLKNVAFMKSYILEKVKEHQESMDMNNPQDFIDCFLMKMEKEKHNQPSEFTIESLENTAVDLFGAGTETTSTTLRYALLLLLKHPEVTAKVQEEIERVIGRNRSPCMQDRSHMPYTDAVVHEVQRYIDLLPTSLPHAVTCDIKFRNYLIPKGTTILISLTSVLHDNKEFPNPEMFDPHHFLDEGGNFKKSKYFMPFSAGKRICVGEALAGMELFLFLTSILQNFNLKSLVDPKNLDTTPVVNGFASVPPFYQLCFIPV

Chain of CYP3A4 (P08684 whole entry): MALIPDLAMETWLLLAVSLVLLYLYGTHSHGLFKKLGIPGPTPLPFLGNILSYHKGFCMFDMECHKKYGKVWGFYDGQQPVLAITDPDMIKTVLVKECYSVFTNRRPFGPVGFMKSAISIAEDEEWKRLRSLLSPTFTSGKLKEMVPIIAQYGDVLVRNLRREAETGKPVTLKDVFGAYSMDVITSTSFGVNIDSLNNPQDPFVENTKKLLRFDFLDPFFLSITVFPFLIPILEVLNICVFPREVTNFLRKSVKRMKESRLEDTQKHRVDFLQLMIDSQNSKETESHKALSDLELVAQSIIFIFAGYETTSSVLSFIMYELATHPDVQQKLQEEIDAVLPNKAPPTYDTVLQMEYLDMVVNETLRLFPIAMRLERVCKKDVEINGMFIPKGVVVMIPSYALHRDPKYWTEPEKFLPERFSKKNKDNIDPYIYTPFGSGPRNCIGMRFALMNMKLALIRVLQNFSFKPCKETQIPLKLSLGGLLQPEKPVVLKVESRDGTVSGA

plasma protein binding [1]: ≥ 99.9% | CYP3A4 inhibition (CYP3A4): is an inhibitor | IC50 (ALK2(R206H)): < 100 nM | cumulative amount of parent compound excreted in the urine ([4]; Part 2, 5 to 20 mg QD): less than 1% | CLR,0-6 ([4]; 5 mg QD): 17.16 (90.4) mL/h | CLR,6-12 ([4]; 5 mg QD): 11.11 (152.2) mL/h | CLR,32-24 ([4]; 5 mg QD): 12.32 (83.5) mL/h | CLR,144-150 ([4]; 5 mg QD): 22.90 (79.5) mL/h | CLR,150-156 ([4]; 5 mg QD): 10.85 (144.3) mL/h | CLR,156-168 ([4]; 5 mg QD): 10.66 (114.9) mL/h | Cum % excreted0-168 ([4]; 5 mg QD): 0.2515 (114.5) % | CumAe0-168 ([4]; 5 mg QD): 88,030 (114.5) ng | CLR,0-6 ([4]; 10 mg QD): 9.850 (75.1) mL/h | CLR,6-12 ([4]; 10 mg QD): 5.468 (73.0) mL/h | CLR,32-24 ([4]; 10 mg QD): 5.694 (65.7) mL/h | CLR,144-150 ([4]; 10 mg QD): 12.01 (64.4) mL/h | CLR,150-156 ([4]; 10 mg QD): 4.787 (168.5) mL/h | CLR,156-168 ([4]; 10 mg QD): 3.480 (152.2) mL/h | Cum % excreted0-168 ([4]; 10 mg QD): 0.1209 (66.5) % | CumAe0-168 ([4]; 10 mg QD): 84,600 (66.5) ng | CLR,0-6 ([4]; 15 mg QD): 14.19 (131.3) mL/h | CLR,6-12 ([4]; 15 mg QD): 7.172 (100.3) mL/h | CLR,32-24 ([4]; 15 mg QD): 6.837 (92.5) mL/h | CLR,144-150 ([4]; 15 mg QD): 11.49 (171.8) mL/h | CLR,150-156 ([4]; 15 mg QD): 8.596 (123.2) mL/h | CLR,156-168 ([4]; 15 mg QD): 6.846 (93.4) mL/h | Cum % excreted0-168 ([4]; 15 mg QD): 0.1676 (89.5) % | CumAe0-168 ([4]; 15 mg QD): 176,000 (89,5) ng | CLR,0-6 ([4]; 20 mg QD): 13.36 (76.2) mL/h | CLR,6-12 ([4]; 20 mg QD): 9.673 (64.5) mL/h | CLR,32-24 ([4]; 20 mg QD): 7.595 (39.1) mL/h | CLR,144-150 ([4]; 20 mg QD): 15.28 (85.8) mL/h | CLR,150-156 ([4]; 20 mg QD): 7.978 (54.7) mL/h | CLR,156-168 ([4]; 20 mg QD): 4.674 (146.4) mL/h | Cum % excreted0-168 ([4]; 20 mg QD): 0.1705 (47.2) % | CumAe0-168 ([4]; 20 mg QD): 238,600 (47.2) ng | CYP2C8 inhibition (CYP2C8): is an inhibitor | CYP1A2 inhibition (cytochrome P450 (CYP)1A2): not an inhibitor | plasma protein binding [5]: ≥ 99.9% | CYP2C9 inhibition (CYP2C9): is an inhibitor
Compound: COc1cc(-n2cnc(Nc3nc(N4CCC[C@H]4C(N)=O)nc4sccc34)c2)cc(OC)c1OC.O=C(O)CC(O)(CC(=O)O)C(=O)O [Compound A]
micronucleus-comet genotoxicity [2]: negative | metabolism / human-specific metabolites [3]: metabolized by animal and human liver S9 fraction with no apparent human-specific metabolites
